From patent US10292391B2, “Pesticidally active 1,2,4-triazole derivatives with sulphur containing substituents” (Syngenta Participations AG, priority 2015, dated 2019)

Key:
[1] = system: Spodoptera littoralis (Egyptian Cotton Leaf Worm); assay: Activity against Spodoptera littoralis, sprayed cotton leaf discs; type: in vivo; conditions: foliar, 72 h, application rate of 200 ppm, L1 larvae, 3 days after infestation, read-out: control (at least one of mortality, anti-feedant effect, and growth inhibition)
Method: Cotton leaf discs were placed on agar in 24-well microtiter plates and sprayed with aqueous test solutions prepared from 10,000 ppm DMSO stock solutions. After drying the leaf discs were infested with five L1 larvae. The samples were assessed for mortality, anti-feedant effect, and growth inhibition in comparison to untreated samples 3 days after infestation. Control of Spodoptera littoralis by a test sample is when at least one of mortality, anti-feedant effect, and growth inhibition is higher than the untreated sample.

[2] = system: Spodoptera littoralis (Egyptian Cotton Leaf Worm); assay: Activity against Spodoptera littoralis, systemic via lettuce grown on treated agar; type: in vivo; conditions: 144 h, test rate of 12.5 ppm, root uptake by lettuce, 6 days after infestation, read-out: effect in at least one of the three categories (mortality, anti-feedancy, or growth inhibition)
From the text: Test compounds were applied by pipette from 10,000 ppm DMSO stock solutions into 24-well plates and mixed with agar. Lettuce seeds were placed on the agar and the multi well plate was closed by another plate which contains also agar. After 7 days the roots have absorbed the compound and the lettuce has grown into the lid plate. The lettuce leafs were now cut off into the lid plate. Spodoptera eggs were pipetted through a plastic stencil on a humid gel blotting paper and the plate closed with it. The samples were assessed for mortality, anti-feedant effect and growth inhibition in comparison to untreated samples 6 days after infestation.

[3] = system: Plutella xylostella (Diamond Back Moth); assay: Activity against Plutella xylostella, treated artificial diet; type: in vivo; conditions: 120 h, application rate of 200 ppm, L2 larvae, 5 days after infestation, read-out: effect in at least one of the two categories (mortality or growth inhibition)
Method: (§1) 24-well microtiter plates with artificial diet were treated with aqueous test solutions prepared from 10,000 ppm DMSO stock solutions by pipetting. After drying, the plates were infested with L2 larvae (10 to 15 per well). The samples were assessed for mortality and growth inhibition in comparison to untreated samples 5 days after infestation.

[4] = system: Diabrotica Balteata (Corn Root Worm); assay: Activity against Diabrotica balteata, sprayed maize sprouts; type: in vivo; conditions: 96 h, application rate of 200 ppm, L2 larvae, 4 days after infestation, read-out: effect in at least one of the two categories (mortality or growth inhibition)
Method: as §1, with “Maize sprouts, placed on an agar layer in 24-well” for “24-well”, “plates” for “plates with artificial diet”, “spraying.” for “pipetting.”, “(6” for “(10”, “10” for “15”, “4” for “5”

[5] = system: Myzus persicae (Green Peach Aphid); assay: Activity against Myzus persicae, sprayed sunflower leaf discs; type: in vivo; conditions: foliar, 144 h, application rate of 200 ppm, aphid population of mixed ages, 6 days after infestation
Method: (§2) Sunflower leaf discs were placed on agar in a 24-well microtiter plate and sprayed with aqueous test solutions prepared from 10,000 ppm DMSO stock solutions. After drying, the leaf discs were infested with an aphid population of mixed ages. The samples were assessed for mortality 6 days after infestation.

[6] = system: Myzus persicae (Green Peach Aphid); assay: Activity against Myzus persicae, systemic via roots of pea seedlings; type: in vivo; conditions: 144 h, test rate of 24 ppm, roots of pea seedlings in test solution, 6 days
Method: Roots of pea seedlings infested with an aphid population of mixed ages were placed directly in the aqueous test solutions prepared from 10,000 DMSO stock solutions. The samples were assessed for mortality 6 days after placing seedlings in test solutions.

[7] = system: Frankliniella occidentalis (Western Flower Thrips); assay: Activity against Frankliniella occidentalis, sprayed sunflower leaf discs; type: in vivo; conditions: foliar, 168 h, application rate of 200 ppm, population of mixed ages, 7 days after infestation
Method: as §2, with “in” for “in a”, “plates” for “plate”, “10,000” for “10,000 ppm”, “drying” for “drying,”, “a Frankliniella” for “an aphid”, “7” for “6”

[8] = system: Bemisia tabaci (Cotton White Fly); assay: Activity against Bemisia tabaci, sprayed cotton leaf discs; type: in vivo; conditions: foliar, 144 h, application rate of 200 ppm, adult white flies, 6 days after incubation
Method: Cotton leaf discs were placed on agar in 24-well microtiter plates and sprayed with aqueous test solutions prepared from 10,000 ppm DMSO stock solutions. After drying the leaf discs were infested with adult white flies. The samples were checked for mortality 6 days after incubation.

[9] = system: Euschistus heros(Neotropical Brown Stink Bug); assay: Activity against Euschistus heros, sprayed soybean leaf; type: in vivo; conditions: 120 h, application rate of 200 ppm, N-2 nymphs, 5 days after infestation, read-out: effect in at least one of the two categories (mortality or growth inhibition)
Method: Soybean leaf on agar in 24-well microtiter plates were sprayed with aqueous test solutions prepared from 10,000 ppm DMSO stock solutions. After drying the leaf were infested with N-2 nymphs. The samples were assessed for mortality and growth inhibition in comparison to untreated samples 5 days after infestation.

[10] = system: Thrips tabaci (Onion Thrips); assay: Activity against Thrips tabaci, sprayed sunflower leaf discs; type: in vivo; conditions: foliar, 144 h, application rate of 200 ppm, thrips population of mixed ages, 6 days after infestation
Method: as §2, with “in” for “in a”, “plates” for “plate”, “drying” for “drying,”, “a thrips” for “an aphid”

[11] = system: Tetranychus urticae (Two-Spotted Spider Mite); assay: Activity against Tetranychus urticae, sprayed bean leaf discs; type: in vivo; conditions: foliar, 192 h
Method: Bean leaf discs on agar in 24-well microtiter plates were sprayed with aqueous test solutions prepared from 10,000 ppm DMSO stock solutions. After drying the leaf discs were infested with a mite population of mixed ages. The samples were assessed for mortality on mixed population (mobile stages) 8 days after infestation.

Structure (SMILES) | mortality at 200 ppm [1] [%] | percent control (mortality, anti-feedancy or growth inhibition) at 12.5 ppm [2] [%] | percent effect (mortality or growth inhibition) at 200 ppm [3] [%] | percent effect (mortality or growth inhibition) at 200 ppm [4] [%] | mortality at 200 ppm [5] [%] | mortality at 24 ppm [6] [%] | mortality at 200 ppm [7] [%] | mortality at 200 ppm [8] [%] | percent effect (mortality or growth inhibition) at 200 ppm [9] [%] | mortality at 200 ppm [10] [%] | melting point [°C] | mortality at 200 ppm [11] [%]
CCS(=O)(=O)c1cc(C2(C#N)CC2)cnc1-c1nnc(-c2cc(C(F)(F)F)ccn2)n1C [Compound P17, 1-[5-ethylsulfonyl-6-[4-methyl-5-[4-(trifluoromethyl)-2-pyridyl]-1,2,4-triazol-3-yl]-3-pyridyl]cyclopropanecarbonitrile] | ≥ 80 | ≥ 80 | ≥ 80 | ≥ 80 | ≥ 80 | ≥ 80 | ≥ 80 | ≥ 80 | ≥ 80 | ≥ 80 |  | 
CCSc1cc(SC(F)(F)F)cnc1-c1nnc(-c2cc(C(F)(F)F)ccn2)n1C [Compound P33, 3-ethylsulfanyl-2-[4-methyl-5-[4-(trifluoromethyl)-2-pyridyl]-1,2,4-triazol-3-yl]-5-(trifluoromethylsulfanyl)pyridine] |  |  |  |  |  |  |  |  |  |  | 94 to 95 | 
CCS(=O)(=O)c1cc(-n2cnc(Cl)n2)cnc1-c1nnc(-c2cc(C(F)(F)F)ncn2)n1C [Compound P45] | ≥ 80 |  | ≥ 80 | ≥ 80 | ≥ 80 | ≥ 80 | ≥ 80 | ≥ 80 | ≥ 80 | ≥ 80 |  | 
CCS(=O)(=O)c1cc(-n2cc(C(F)(F)F)cn2)cnc1-c1nnc(-c2cc(C(F)(F)F)ccn2)n1C [Compound P6] | ≥ 80 | ≥ 80 | ≥ 80 | ≥ 80 | ≥ 80 |  | ≥ 80 | ≥ 80 | ≥ 80 | ≥ 80 |  | 
CCS(=O)(=O)c1cc(-n2cc(C#N)cn2)cnc1-c1nnc(-c2cc(C(F)(F)F)ccn2)n1C [Compound P14, 1-[5-ethylsulfonyl-6-[4-methyl-5-[4-(trifluoromethyl)-2-pyridyl]-1,2,4-triazol-3-yl]-3-pyridyl]pyrazole-4-carbonitrile] | ≥ 80 | ≥ 80 | ≥ 80 | ≥ 80 | ≥ 80 | ≥ 80 | ≥ 80 | ≥ 80 | ≥ 80 | ≥ 80 |  | 
CCS(=O)(=O)c1ccc(-n2cnc(Cl)n2)nc1-c1nnc(-c2cc(C(F)(F)F)ncn2)n1C [Compound P48, 4-[5-[6-(3-chloro-1,2,4-triazol-1-yl)-3-ethylsulfonyl-2-pyridyl]-4-methyl-1,2,4-triazol-3-yl]-6-(trifluoromethyl)pyrimidine] | ≥ 80 | ≥ 80 | ≥ 80 | ≥ 80 | ≥ 80 |  | ≥ 80 | ≥ 80 | ≥ 80 |  |  | 
CCS(=O)(=O)c1cc(-n2cnc(Cl)n2)cnc1-c1nnc(-c2cc(C(F)(F)F)ccn2)n1C [Compound P27] | ≥ 80 | ≥ 80 | ≥ 80 | ≥ 80 | ≥ 80 | ≥ 80 | ≥ 80 | ≥ 80 | ≥ 80 | ≥ 80 |  | 
CCS(=O)(=O)c1cc(-c2cc(C#N)ccn2)cnc1-c1nnc(-c2cc(C(F)(F)F)ccn2)n1C [Compound P23] | ≥ 80 | ≥ 80 | ≥ 80 | ≥ 80 | ≥ 80 | ≥ 80 | ≥ 80 |  | ≥ 80 | ≥ 80 |  | 
CCSc1ccc(-c2ccc(C(F)(F)F)cc2)nc1-c1nnc(-c2cc(C(F)(F)F)ccn2)n1C [Compound P31, 3-ethylsulfanyl-2-[4-methyl-5-[4-(trifluoromethyl)-2-pyridyl]-1,2,4-triazol-3-yl]-6-[4-(trifluoromethyl)phenyl]pyridine] |  |  |  |  |  |  |  |  |  |  | 174 to 175 | 
CCS(=O)(=O)c1ccc(-n2cncn2)nc1-c1nnc(-c2cc(C(F)(F)F)ccn2)n1C [Compound P37] | ≥ 80 |  | ≥ 80 | ≥ 80 | ≥ 80 | ≥ 80 |  | ≥ 80 | ≥ 80 |  |  | 
CCS(=O)(=O)c1ccc(-n2cnc(C#N)n2)nc1-c1nnc(-c2cc(C(F)(F)F)ncn2)n1C [Compound P49] |  |  |  |  |  |  |  |  |  |  | 242 to 244 | 
CCS(=O)(=O)c1ccc(-c2ccc(C(F)(F)F)cc2)nc1-c1nnc(-c2cc(C(F)(F)F)ccn2)n1C [Compound P32, 3-ethylsulfonyl-2-[4-methyl-5-[4-(trifluoromethyl)-2-pyridyl]-1,2,4-triazol-3-yl]-6-[4-(trifluoromethyl)phenyl]pyridine] | ≥ 80 |  | ≥ 80 | ≥ 80 |  |  |  | ≥ 80 |  | ≥ 80 |  | 
CCS(=O)(=O)c1ccc(-c2cccc(F)c2)nc1-c1nnc(-c2cc(C(F)(F)F)ncn2)n1C [Compound P51] |  |  |  |  |  |  |  |  |  |  | 201 to 203 | 
CCS(=O)(=O)c1cc(C2CC2)cnc1-c1nnc(-c2cc(C(F)(F)F)ccn2)n1C [Compound P29, 5-cyclopropyl-3-ethylsulfonyl-2-[4-methyl-5-[4-(trifluoromethyl)-2-pyridyl]-1,2,4-triazol-3-yl]pyridine] | ≥ 80 | ≥ 80 | ≥ 80 | ≥ 80 | ≥ 80 | ≥ 80 |  |  |  | ≥ 80 |  | 
CCS(=O)(=O)c1cc(-c2nccc(C#N)n2)cnc1-c1nnc(-c2cc(C(F)(F)F)ccn2)n1C [Compound P19] | ≥ 80 |  |  | ≥ 80 |  |  |  |  |  |  |  | ≥ 80
